Columns and labels:
CB2 receptor = CB2 receptor (Homo sapiens, UniProt P34972); conditions: Chicca A. et al; cited from earlier work
[1] = oral and topical administration, Chaves 2008; cited from earlier work
[2] = according to its MSDS; cited from earlier work
[3] = Sköld et al. 2006; cited from earlier work
[4] = tested on: mouse model of schizophrenia (PCP); assay: Forced-swimming test after oral BCP in canola oil, PCP mouse model of schizophrenia; format: in vivo, mice
Experimental: (§1) The mouse model of schizophrenia was established.
BCP was diluted in canola oil.
BCP (10 mg/kg diluted in canola oil) was administered to adolescent mice (PND 4362) by gavage twice a week (on Sunday and Wednesday) for 3 weeks, a total of 6 gavages. Control group and PCP-induced group received by gavage the oil vehicle.
Training was conducted for 6 min a day before the test. Each mouse was placed into a transparent glass cylinder filled with fresh water at 25° C. On the test day, the total dilation/frequency of immobility and climbing was counted every 2 minutes for 6 minutes. An increased immobility is an index of learning and habituation, therefore a positive behavioral adaptation with a stressful condition.

[5] = air exposed, after 5 weeks; cited from earlier work
[6] = Body weight of mice treated orally with BCP in SEDDS; format: in vivo; conditions: 5 mg/kg BCP in SEDDS oral composition, gavage, adolescent mice
Experimental: (§2) BCP (5 mg/kg or 10 mg/kg in diluted self-emulsifying vehicle (Example 1)) was administered to adolescent mice (10 μl/g) by gavage twice a week (on Sunday and Wednesday) for 3 weeks (PND 43-62), a total of 6 injections. Control group and PCP-induced group received by gavage the oral formulation solution without the drug.

[7] = tested on: mouse model of schizophrenia (PCP); assay: Open field test after oral BCP in SEDDS, PCP mouse model of schizophrenia; format: in vivo; conditions: 5 mg/kg BCP in SEDDS oral formulation, gavage, adolescent mice
Experimental: as §1
(§3) Sterile double-distilled water (DDW) was warmed for […] in a pre-warmed thermobath (35-38° C.). The SEDDS vehicle of the oral composition of Example 1 was warmed up separately to 35-38° C. for 10 min. In order to prepare BCP (5 mg/ml) for a final dose of 10 mg/kg, BCP (5 mg) was added directly into the vehicle (1 ml) and vortexed for 1 min to obtain the oral composition. Then the warmed sterile DDW (4 ml) at 35-38° C. was added at a ratio of 1:5 oral composition: DDW dilution and the diluted composition was vortexed for 1 min. In order to prepare BCP for a final dose of 5 mg/kg, 500 μl of BCP at 5 mg/ml were diluted with 500 μl SEDDS vehicle (1:2 dilution). Then the warmed sterile DDW (4 ml) at 35-38° C. was added at a ratio of 1:5 oral composition. DDW dilution and the diluted composition was vortexed for 1 min.
(§4) BCP (5 mg/kg or 10 mg/kg in diluted self-emulsifying vehicle (Example 1)) was administered to adolescent mice (10 μl/g) by gavage twice a week (on Sunday and Wednesday) for 3 weeks (PND 43-62), a total of 6 injections. […]
Each mouse was placed into the center of a clear open Plexiglas Chamber (40 cm*32 cm*30 cm) which its floor was divided to squares of 4 cm×5 cm. […] Ambulation behavior was manually counted for 8 min and data were collected in 2 min intervals.

[8] = tested on: mouse model of schizophrenia (PCP); assay: Social interaction test in a novel environment after oral BCP in SEDDS, PCP mouse model; format: in vivo; conditions: 5 mg/kg BCP in SEDDS oral composition, gavage, adolescent mice
Experimental: as §1, §3, §4
Each mouse was placed in a novel cage together with a nonaggressive intruder mouse, of the same species, same sex and a similar age. The interaction between the two mice was recorded for 10 minutes with EthoVision software (Noldus). […]

[9] = tested on: mouse model of schizophrenia (PCP); assay: Forced-swimming test after oral BCP in SEDDS, PCP mouse model of schizophrenia; format: in vivo; conditions: gavage twice a week for 3 weeks, adolescent mice
Experimental: as §1, §3, §2
Training was conducted for 6 min a day before the test. […] On the test day, the total duration/frequency of immobility and climbing was counted every 2 minutes for 6 minutes. […]

[10] = Dissolution of MH in oral formulations V-01, V-02, V-03; format: physicochemical
Experimental: The solution of 4-O-methylhonokiol (MH) was prepared in oral formulation according to Table 1 below.

[11] = Dissolution of MH in the SEDDS vehicle of Example 1; format: physicochemical
Experimental: Preparation of MH in SEDDS vehicle. • 1. The SEDDS vehicle of the oral composition of Example 1 was warmed up separately to 42° C. for 13 min. In order to prepare about 5% (g/vol) MH solution, the vehicle (380 mg) was added to MH (22.8 mg) directly and vortexed for 60 sec to obtain the oral composition. • 2. The SEDDS vehicle of the oral composition of Example 1 was warmed up separately to 52° C. for 15 min. In order to prepare about 5% (g/vol) MH solution, the vehicle (380.18 mg) was added to MH (21.2 mg) directly and vortexed for 100 sec to obtain the oral composition. Then the solution was warmed up to 50° C. for 10 min. Then the solution was warmed up to 57° C. for 13 min and vortexed for 180 sec. • 3. The SEDDS vehicle of the oral composition of Example 1 was warmed up separately to 55° C. for 15 min. In order to prepare about 1% (g/vol) MH solution, the vehicle (396 mg) was added to MH (4 mg) directly and vortexed for 60 sec to obtain the oral composition. Then the solution was warmed up to 55° C. for 10 min and vortexed for 60 sec.

CB2 receptor, sequence (P34972 whole entry): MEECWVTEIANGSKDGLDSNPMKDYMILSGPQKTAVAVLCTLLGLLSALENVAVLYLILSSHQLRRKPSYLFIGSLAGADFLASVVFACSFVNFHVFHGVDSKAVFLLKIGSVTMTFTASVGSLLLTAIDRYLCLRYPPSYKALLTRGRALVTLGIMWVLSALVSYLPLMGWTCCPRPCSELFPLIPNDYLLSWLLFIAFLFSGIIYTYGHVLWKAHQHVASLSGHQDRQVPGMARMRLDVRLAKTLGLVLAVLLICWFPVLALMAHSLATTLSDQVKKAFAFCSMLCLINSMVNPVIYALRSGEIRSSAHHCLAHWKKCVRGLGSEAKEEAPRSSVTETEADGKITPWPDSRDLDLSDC

C/C1=C\CC/C(C)=C/CC(C)(C)/C=C/C1 [alpha-humulene]
CB2 receptor binding (CB2 receptor): inactivity
absorption [1]: rapid onset and relatively good absorption
irritancy [2]: skin, eyes and respiratory irritant

C=C1CC[C@H]2O[C@]2(C)CC[C@@H]2[C@@H]1CC2(C)C [BCP oxide, Caryophyllene oxide]
CB2 receptor binding (CB2 receptor): inactivity
allergenicity [3]: allergen

trans-(1R,9S)-8-methylene4,11,11 trimethylbicyclo[7.2.0)]undec-4-ene [BCP]
effect of 5 mg/kg PCP on the frequency of immobility in the forced swim test ([4]; 10 mg/kg BCP in oil composition (canola oil), gavage twice a week for 3 weeks): did not reverse the effect
reversing the frequency of climbing in the forced-swim test ([4]; BCP in oil, gavage): ineffective
original compound consumed by oxidation [5]: ~50%
body weight [6]: did not affect their body weight
effect of PCP on activity in the open field test [7]: reversed the effect of PCP
effect of PCP in the social interaction test [8]: reversed the effect of PCP
effect of PCP in the forced-swim test ([9]; 5 mg/kg BCP in SEDDS oral formulation): reversed the effect of PCP
effect of PCP in the forced-swim test ([9]; 10 mg/kg BCP in SEDDS oral formulation): reversed the effect of PCP

C=CCc1ccc(O)c(-c2ccc(OC)c(CC=C)c2)c1 [MH, 4-O-methylhonokiol]
dissolution of MH in oral formulation ([10]; in V-01): dissolved
dissolution of MH in oral formulation ([10]; in V-02): dissolved
dissolution of MH in oral formulation ([10]; in V-03): dissolved
dissolution of MH in SEDDS vehicle ([11]; about 1% (g/vol) MH, solution warmed up to 55° C. for 10 min, vortexed 60 sec): dissolved
dissolution of MH in SEDDS vehicle ([11]; about 1% (g/vol) MH, vehicle warmed to 55° C., vortexed 60 sec): did not dissolve
dissolution of MH in SEDDS vehicle ([11]; about 5% (g/vol) MH, solution warmed up to 50° C. for 10 min): did not dissolve
dissolution of MH in SEDDS vehicle ([11]; about 5% (g/vol) MH, solution warmed up to 57° C. for 13 min, vortexed 180 sec): dissolved
dissolution of MH in SEDDS vehicle ([11]; about 5% (g/vol) MH, vehicle warmed to 42° C., vortexed 60 sec): did not dissolve
dissolution of MH in SEDDS vehicle ([11]; about 5% (g/vol) MH, vehicle warmed to 52° C., vortexed 100 sec): did not dissolve
